# Measured values: patent US20230242585A1, “IMMUNOMODULATORS” (Bristol-Myers Squibb Company, priority 2020, published 2023)
# Starred links: 1 amine or outer side, 2 acyl side, 3 side chain; linkers in the order of their positions; H or OH if unused. Positions of bridges follow the written chain, without caps; N, C: chain ends. Non-standard residues stand in square brackets, D forms with d. Residues, ends and D or L forms follow the SMILES beside them. X48 = O=C([C@H](CCNCc1ccccc1O[C@@H]1O[C@H](CO)[C@@H](O)[C@H](O)[C@H]1O)N[*:1])[*:2]; X47 = O=C([C@H](CNCc1ccccc1O[C@@H]1O[C@H](CO)[C@@H](O)[C@H](O)[C@H]1O)N[*:1])[*:2]; X46 = CCn1c2ccccc2c2cc(CNCC[C@H](N[*:1])C(=O)[*:2])ccc21; Trp(1-CH2COOH) = N[C@@H](Cc1cn(CC(=O)O)c2ccccc12)C(=O)O; X45 = CCn1c2ccccc2c2cc(CNC[C@H](N[*:1])C(=O)[*:2])ccc21; X65 = O=C([C@H](CCNCc1ccccc1-c1ccc(Cl)cc1)N[*:1])[*:2]; X57 = COc1cc2cccc(OC)c2cc1CNCC[C@H](N[*:1])C(=O)[*:2]; X64 = O=C([C@H](CNCc1ccccc1-c1ccc(Cl)cc1)N[*:1])[*:2]; X10 = O=C([C@H](CNCc1c2ccccc2nc2ccccc12)N[*:1])[*:2]; X12 = O=C([C@H](CNCc1cccc2ccc3ccccc3c12)N[*:1])[*:2]; X36 = COc1cc2cccc(OC)c2cc1CNC[C@H](N[*:1])C(=O)[*:2]; X14 = O=C([C@H](CCNCc1cccc2[nH]ccc12)N[*:1])[*:2]; X13 = O=C([C@H](CNCc1cccc2[nH]ccc12)N[*:1])[*:2]; X19 = O=C([C@H](CCNCc1cccc2nccnc12)N[*:1])[*:2]; X18 = O=C([C@H](CNCc1cccc2nccnc12)N[*:1])[*:2]; X23 = O=C([C@H](CCNCc1cc2ccccc2o1)N[*:1])[*:2]; X22 = O=C([C@H](CNCc1cc2ccccc2o1)N[*:1])[*:2]; Hyp = O=C(O)[C@@H]1C[C@@H](O)CN1; NMeNle = CCCC[C@H](NC)C(=O)O; NMeA = CN[C@@H](C)C(=O)O; Dab = NCC[C@H](N)C(=O)O
# Target: T1, PD-1/PD-L1 (Homo sapiens, UniProt Q9NZQ7)
# T1 construct: TVMV protease site (linker) (C); made in house; host or cells: HEK293T cells
# Assay: PD-1/PD-L1 Homogenous Time-Resolved Fluorescence (HTRF) binding assay
# Details: PD-L1-His 10 nM, PD-1-Ig 20 nM
# Text: The ability of the compounds of formula (I) to bind to PD-L1 was investigated using a PD-1/PD-L1 Homogenous Time-Resolved Fluorescence (HTRF) binding assay.
# The interaction of PD-1 and PD-L1 can be assessed using soluble, purified preparations of the extracellular domains of the two proteins. The PD-1 and PD-L1 protein extracellular domains were expressed as fusion proteins with detection tags, for PD-1, the tag was the Fc portion of Immunoglobulin (PD-1-Ig) and for PD-L1 it was the 6 histidine motif (PD-L1-His). All binding studies were performed in an HTRF assay buffer consisting of dPBS supplemented with 0.1% […] bovine serum albumin and 0.05% (v/v) Tween-20. For the h/PD-L1-His binding assay, inhibitors were pre-incubated with PD-L1-His (10 nM final) for 15 m in 4 µl of assay buffer, followed by addition of PD-1-Ig (20 nM final) in 1 µl of assay buffer and further incubation for 15 m. HTRF detection was achieved using europium crypate-labeled anti-Ig (1 nM final) and allophycocyanin (APC) labeled anti-His (20 nM final). Antibodies were diluted in HTRF detection buffer and 5 µl was dispensed on top of the binding reaction. The reaction mixture was allowed to equilibrate for 30 minutes and the resulting signal (665 nm/620 nm ratio) was obtained using an EnVision fluorometer. Additional binding assays were established between the human proteins PD-1-Ig/PD-L2-His (20 & 5 nM, respectively) and CD80-His/PD-L1-Ig (100 & 10 nM, respectively).
# Recombinant Proteins: Human PD-1 (25-167) with a C-terminal human Fc domain of immunoglobulin G (Ig) epitope tag [hPD-1 (25-167)-3S-IG] and human PD-L1 (18-239) with a C-terminal His epitope tag [hPD-L1(18-239)-TVMV-His] were expressed in HEK293T cells and purified sequentially by ProteinA affinity chromatography and size exclusion chromatography. Human PD-L2-His and CD80-His was obtained through commercial sources.
# Table 1 lists the IC50 values for representative examples of this disclosure measured in the PD-1/PD-L1 Homogenous Time-Resolved Fluorescence (HTRF) binding assay.
# T1 sequence (Q9NZQ7 18-239): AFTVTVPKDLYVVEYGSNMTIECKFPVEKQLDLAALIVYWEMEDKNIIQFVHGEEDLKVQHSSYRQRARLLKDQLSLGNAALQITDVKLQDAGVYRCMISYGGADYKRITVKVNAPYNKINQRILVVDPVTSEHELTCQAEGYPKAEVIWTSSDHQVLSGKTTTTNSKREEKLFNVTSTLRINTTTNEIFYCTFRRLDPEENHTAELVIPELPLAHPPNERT
row,IC50 [nM],Compound
1,14,CCCC[C@H]1C(=O)N(C)[C@@H](CCCC)C(=O)N[C@@H](CC(C)C)C(=O)N[C@H](C(=O)NCC(N)=O)CSCC(=O)N[C@@H](Cc2ccc(O)cc2)C(=O)N(C)[C@@H](C)C(=O)N[C@@H](CC(N)=O)C(=O)N2CCC[C@H]2C(=O)N[C@@H](CNCc2ccccc2-c2ccc(Cl)cc2)C(=O)N[C@@H](CC(C)C)C(=O)N2C[C@H](O)C[C@H]2C(=O)N[C@@H](Cc2c[nH]c3ccccc23)C(=O)N[C@@H](CCNCc2ccccc2-c2ccc(Cl)cc2)C(=O)N[C@@H](Cc2cn(CC(=O)O)c3ccccc23)C(=O)N1C [Example 1001] ({CH2CO}-Y[NMeA]NP[X64]L[Hyp]W[X65][Trp(1-CH2COOH)][NMeNle][NMeNle]LCG-NH2; thioether N-14)
2,6.1,CCCC[C@H]1C(=O)N(C)[C@@H](CCCC)C(=O)N[C@@H](CC(C)C)C(=O)N[C@H](C(=O)NCC(N)=O)CSCC(=O)N[C@@H](Cc2ccc(O)cc2)C(=O)N(C)[C@@H](C)C(=O)N[C@@H](CC(N)=O)C(=O)N2CCC[C@H]2C(=O)N[C@@H](CNCc2cccc3nccnc23)C(=O)N[C@@H](CC(C)C)C(=O)N2C[C@H](O)C[C@H]2C(=O)N[C@@H](Cc2c[nH]c3ccccc23)C(=O)N[C@@H](CCNCc2cccc3nccnc23)C(=O)N[C@@H](Cc2cn(CC(=O)O)c3ccccc23)C(=O)N1C [Example 1002] ({CH2CO}-Y[NMeA]NP[X18]L[Hyp]W[X19][Trp(1-CH2COOH)][NMeNle][NMeNle]LCG-NH2; thioether N-14)
3,4.3,CCCC[C@H]1C(=O)N(C)[C@@H](CCCC)C(=O)N[C@@H](CC(C)C)C(=O)N[C@H](C(=O)NCC(N)=O)CSCC(=O)N[C@@H](Cc2ccc(O)cc2)C(=O)N(C)[C@@H](C)C(=O)N[C@@H](CC(N)=O)C(=O)N2CCC[C@H]2C(=O)N[C@@H](CNCc2cccc3nccnc23)C(=O)N[C@@H](CC(C)C)C(=O)N2C[C@H](O)C[C@H]2C(=O)N[C@@H](Cc2c[nH]c3ccccc23)C(=O)N[C@@H](CCN)C(=O)N[C@@H](Cc2cn(CC(=O)O)c3ccccc23)C(=O)N1C [Example 1004] ({CH2CO}-Y[NMeA]NP[X18]L[Hyp]W[Dab][Trp(1-CH2COOH)][NMeNle][NMeNle]LCG-NH2; thioether N-14)
4,32,CCCC[C@H]1C(=O)N(C)[C@@H](CCCC)C(=O)N[C@@H](CC(C)C)C(=O)N[C@H](C(=O)NCC(N)=O)CSCC(=O)N[C@@H](Cc2ccc(O)cc2)C(=O)N(C)[C@@H](C)C(=O)N[C@@H](CC(N)=O)C(=O)N2CCC[C@H]2C(=O)N[C@@H](CNCc2ccccc2O[C@@H]2O[C@H](CO)[C@@H](O)[C@H](O)[C@H]2O)C(=O)N[C@@H](CC(C)C)C(=O)N2C[C@H](O)C[C@H]2C(=O)N[C@@H](Cc2c[nH]c3ccccc23)C(=O)N[C@@H](CCNCc2ccccc2O[C@@H]2O[C@H](CO)[C@@H](O)[C@H](O)[C@H]2O)C(=O)N[C@@H](Cc2cn(CC(=O)O)c3ccccc23)C(=O)N1C [Example 1006] ({CH2CO}-Y[NMeA]NP[X47]L[Hyp]W[X48][Trp(1-CH2COOH)][NMeNle][NMeNle]LCG-NH2; thioether N-14)
5,12,CCCC[C@H]1C(=O)N(C)[C@@H](CCCC)C(=O)N[C@@H](CC(C)C)C(=O)N[C@H](C(=O)NCC(N)=O)CSCC(=O)N[C@@H](Cc2ccc(O)cc2)C(=O)N(C)[C@@H](C)C(=O)N[C@@H](CC(N)=O)C(=O)N2CCC[C@H]2C(=O)N[C@@H](CNCc2ccccc2O[C@@H]2O[C@H](CO)[C@@H](O)[C@H](O)[C@H]2O)C(=O)N[C@@H](CC(C)C)C(=O)N2C[C@H](O)C[C@H]2C(=O)N[C@@H](Cc2c[nH]c3ccccc23)C(=O)N[C@@H](CCN)C(=O)N[C@@H](Cc2cn(CC(=O)O)c3ccccc23)C(=O)N1C [Example 1007] ({CH2CO}-Y[NMeA]NP[X47]L[Hyp]W[Dab][Trp(1-CH2COOH)][NMeNle][NMeNle]LCG-NH2; thioether N-14)
6,4.9,CCCC[C@H]1C(=O)N(C)[C@@H](CCCC)C(=O)N[C@@H](CC(C)C)C(=O)N[C@H](C(=O)NCC(N)=O)CSCC(=O)N[C@@H](Cc2ccc(O)cc2)C(=O)N(C)[C@@H](C)C(=O)N[C@@H](CC(N)=O)C(=O)N2CCC[C@H]2C(=O)N[C@@H](CNCc2cccc3[nH]ccc23)C(=O)N[C@@H](CC(C)C)C(=O)N2C[C@H](O)C[C@H]2C(=O)N[C@@H](Cc2c[nH]c3ccccc23)C(=O)N[C@@H](CCNCc2cccc3[nH]ccc23)C(=O)N[C@@H](Cc2cn(CC(=O)O)c3ccccc23)C(=O)N1C [Example 1008] ({CH2CO}-Y[NMeA]NP[X13]L[Hyp]W[X14][Trp(1-CH2COOH)][NMeNle][NMeNle]LCG-NH2; thioether N-14)
7,9.8,CCCC[C@H]1C(=O)N(C)[C@@H](CCCC)C(=O)N[C@@H](CC(C)C)C(=O)N[C@H](C(=O)NCC(N)=O)CSCC(=O)N[C@@H](Cc2ccc(O)cc2)C(=O)N(C)[C@@H](C)C(=O)N[C@@H](CC(N)=O)C(=O)N2CCC[C@H]2C(=O)N[C@@H](CNCc2ccc3c(c2)c2ccccc2n3CC)C(=O)N[C@@H](CC(C)C)C(=O)N2C[C@H](O)C[C@H]2C(=O)N[C@@H](Cc2c[nH]c3ccccc23)C(=O)N[C@@H](CCNCc2ccc3c(c2)c2ccccc2n3CC)C(=O)N[C@@H](Cc2cn(CC(=O)O)c3ccccc23)C(=O)N1C [Example 1009] ({CH2CO}-Y[NMeA]NP[X45]L[Hyp]W[X46][Trp(1-CH2COOH)][NMeNle][NMeNle]LCG-NH2; thioether N-14)
8,12,CCCC[C@H]1C(=O)N(C)[C@@H](CCCC)C(=O)N[C@@H](CC(C)C)C(=O)N[C@H](C(=O)NCC(N)=O)CSCC(=O)N[C@@H](Cc2ccc(O)cc2)C(=O)N(C)[C@@H](C)C(=O)N[C@@H](CC(N)=O)C(=O)N2CCC[C@H]2C(=O)N[C@@H](CNCc2cc3ccccc3o2)C(=O)N[C@@H](CC(C)C)C(=O)N2C[C@H](O)C[C@H]2C(=O)N[C@@H](Cc2c[nH]c3ccccc23)C(=O)N[C@@H](CCNCc2cc3ccccc3o2)C(=O)N[C@@H](Cc2cn(CC(=O)O)c3ccccc23)C(=O)N1C [Example 1010] ({CH2CO}-Y[NMeA]NP[X22]L[Hyp]W[X23][Trp(1-CH2COOH)][NMeNle][NMeNle]LCG-NH2; thioether N-14)
9,7,CCCC[C@H]1C(=O)N(C)[C@@H](CCCC)C(=O)N[C@@H](CC(C)C)C(=O)N[C@H](C(=O)NCC(N)=O)CSCC(=O)N[C@@H](Cc2ccc(O)cc2)C(=O)N(C)[C@@H](C)C(=O)N[C@@H](CC(N)=O)C(=O)N2CCC[C@H]2C(=O)N[C@@H](CNCc2cc3c(OC)cccc3cc2OC)C(=O)N[C@@H](CC(C)C)C(=O)N2C[C@H](O)C[C@H]2C(=O)N[C@@H](Cc2c[nH]c3ccccc23)C(=O)N[C@@H](CCNCc2cc3c(OC)cccc3cc2OC)C(=O)N[C@@H](Cc2cn(CC(=O)O)c3ccccc23)C(=O)N1C [Example 1011] ({CH2CO}-Y[NMeA]NP[X36]L[Hyp]W[X57][Trp(1-CH2COOH)][NMeNle][NMeNle]LCG-NH2; thioether N-14)
10,4.6,CCCC[C@H]1C(=O)N(C)[C@@H](CCCC)C(=O)N[C@@H](CC(C)C)C(=O)N[C@H](C(=O)NCC(N)=O)CSCC(=O)N[C@@H](Cc2ccc(O)cc2)C(=O)N(C)[C@@H](C)C(=O)N[C@@H](CC(N)=O)C(=O)N2CCC[C@H]2C(=O)N[C@@H](CNCc2c3ccccc3nc3ccccc23)C(=O)N[C@@H](CC(C)C)C(=O)N2C[C@H](O)C[C@H]2C(=O)N[C@@H](Cc2c[nH]c3ccccc23)C(=O)N[C@@H](CCN)C(=O)N[C@@H](Cc2cn(CC(=O)O)c3ccccc23)C(=O)N1C [Example 1013] ({CH2CO}-Y[NMeA]NP[X10]L[Hyp]W[Dab][Trp(1-CH2COOH)][NMeNle][NMeNle]LCG-NH2; thioether N-14)
11,4.7,CCCC[C@H]1C(=O)N(C)[C@@H](CCCC)C(=O)N[C@@H](CC(C)C)C(=O)N[C@H](C(=O)NCC(N)=O)CSCC(=O)N[C@@H](Cc2ccc(O)cc2)C(=O)N(C)[C@@H](C)C(=O)N[C@@H](CC(N)=O)C(=O)N2CCC[C@H]2C(=O)N[C@@H](CNCc2ccc3c(c2)c2ccccc2n3CC)C(=O)N[C@@H](CC(C)C)C(=O)N2C[C@H](O)C[C@H]2C(=O)N[C@@H](Cc2c[nH]c3ccccc23)C(=O)N[C@@H](CCN)C(=O)N[C@@H](Cc2cn(CC(=O)O)c3ccccc23)C(=O)N1C [Example 1014] ({CH2CO}-Y[NMeA]NP[X45]L[Hyp]W[Dab][Trp(1-CH2COOH)][NMeNle][NMeNle]LCG-NH2; thioether N-14)

row,Compound,IC50 [nM]
1,CCCC[C@H]1C(=O)N(C)[C@@H](CCCC)C(=O)N[C@@H](CC(C)C)C(=O)N[C@H](C(=O)NCC(N)=O)CSCC(=O)N[C@@H](Cc2ccc(O)cc2)C(=O)N(C)[C@@H](C)C(=O)N[C@@H](CC(N)=O)C(=O)N2CCC[C@H]2C(=O)N[C@@H](CNCc2cccc3ccc4ccccc4c23)C(=O)N[C@@H](CC(C)C)C(=O)N2C[C@H](O)C[C@H]2C(=O)N[C@@H](Cc2c[nH]c3ccccc23)C(=O)N[C@@H](CCN)C(=O)N[C@@H](Cc2cn(CC(=O)O)c3ccccc23)C(=O)N1C [Example 1005] ({CH2CO}-Y[NMeA]NP[X12]L[Hyp]W[Dab][Trp(1-CH2COOH)][NMeNle][NMeNle]LCG-NH2; thioether N-14),120
